For 29 molecules, inhibition and EC50 results are on record in patent US10544156B2, “Hemi-synthetic trilobine analogs for use as a drug” (PIERRE FABRE MEDICAMENT, priority 2015, dated 2020).

As usually defined, the inhibition is the percentage by which the read-out fell short of the control. The term EC50 denotes the midpoint of the concentration-response curve.

This test deals with T1, human C-terminal DNMT3A (623-908a.a.) (Homo sapiens, UniProt Q9Y6K1).
T1 construct: The human C-terminal DNMT3A (623-908a.a.); made in house
The experiment in a line: hDNMT3A assay (restriction-based fluorescence assay). Type of test: biochemical. To be noted: for inhibition at 10 µM: read-out: hDNMT 3A inhibition, Inhibition (%) 10 μM; for inhibition at 32 µM: read-out: hDNMT 3A inhibition, Inhibition (%) 32 μM. From the text: hDNMT3A enzyme inhibition was adapted from the restriction-based fluorescence assay protocol as described in the literature (Ceccaldi et al. Chem Bio Chem 2011, 12, 1337-1345). Briefly, a 5′-labelled biotin oligonucleotide is hybridized to its complementary strand labelled with 6-carboxyfluorescein at the 3′-end into a 384 well microplate (black Optiplates; Perkin Elmer) pre-coated with avidin. The duplex contains a unique CpG site overlapping with a restriction site of a methylation sensitive restriction enzyme. The human C-terminal DNMT3A (623-908a.a.), produced as described in (Gros et al. Nucl. Acids Res. 2013, 41(19):e185), was added in each well (200 ng/well) and mixed with the chemical compounds at desired concentrations and freshly prepared SAM (20 μM final concentration) to start the reaction in a total volume of 50 μL. After 1 hour incubation at 37° C. each well were washed three times with PBS, Tween-20 0.05%, NaCl (500 mM) and three more times with PBST. Specific fluorescent signals were detected with the methylation-sensitive restriction enzyme HpyCH4IV (NEB) as described and measured on a Perkin Elmer Envision detector. The percentage of inhibition is reported. The formula used to calculate the percentage of inhibition is [(X−Y)/X]×100, where X is the signal determined in the absence of the inhibitor and Y is the signal obtained in the presence of the inhibitor. The concentration at which 50% of efficacy of inhibition is observed (EC50) was determined by analysis of a concentration range of the tested compound in triplicates. The non-linear regression fittings with sigmoidal dose-response (variable slope) were performed with GraphPad Prism 4.03 (GraphPad Software).

Setting [1] is: concentration at which 50% of efficacy of inhibition is observed, read-out: EC50 (μM), hDNMT 3A inhibition.
[2] abbreviates: interval line below the EC50 of the same compound, read-out: EC50 (μM), range given.

Like-named read-outs stand apart in the source and are kept apart here.

T1 sequence (Q9Y6K1 627-912 limits assumed): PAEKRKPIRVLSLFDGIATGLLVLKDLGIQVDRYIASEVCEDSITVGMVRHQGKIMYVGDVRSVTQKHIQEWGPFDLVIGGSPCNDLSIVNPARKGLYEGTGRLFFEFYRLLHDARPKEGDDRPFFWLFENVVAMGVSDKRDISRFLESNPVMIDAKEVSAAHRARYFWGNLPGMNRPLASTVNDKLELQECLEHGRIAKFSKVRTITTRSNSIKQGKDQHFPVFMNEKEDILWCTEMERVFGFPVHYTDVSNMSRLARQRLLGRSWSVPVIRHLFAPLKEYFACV

As for `COc1ccc2cc1Oc1ccc(cc1)CC1c3c(cc(OC)c4c3Oc3cc5c(cc3O4)CCN(C)[C@H]5C2)CCN1C=O` (stereo partly shown) [Product 10], the inhibition at 10 µM came out at 17% and the inhibition at 32 µM came out at 72%.

`COc1ccc2cc1Oc1ccc(cc1)C[C@H]1c3c(cc(OC)c4c3Oc3cc5c(cc3O4)CCN(C)[C@H]5C2)CCN1C(N)=O` [Product 11]: the inhibition at 10 µM came out at 43% and the inhibition at 32 µM stood at 77%.

Take `CCN(CC)CCCNC(=S)N1CCc2cc(OC)c3c4c2[C@@H]1Cc1ccc(cc1)Oc1cc(ccc1OC)C[C@H]1c2cc(c(cc2CCN1C)O3)O4` [Product 12]: the inhibition at 10 µM stood at 78% and the inhibition at 32 µM was found to be 93%. Besides, the EC50 under setting [1] was 2.67 to 3.8 µM.

As to `COc1ccc2cc1Oc1ccc(cc1)C[C@H]1c3c(cc(OC)c4c3Oc3cc5c(cc3O4)CCN(C)[C@H]5C2)CCN1S(C)(=O)=O` [Product 13], the inhibition at 10 µM was determined as 39% and the inhibition at 32 µM was 45%.

As for `CNC(=S)N1CCc2cc(OC)c3c4c2[C@@H]1Cc1ccc(cc1)Oc1cc(ccc1OC)C[C@H]1c2cc(c(cc2CCN1C)O3)O4` [Product 14], the inhibition at 10 µM is 93% and the inhibition at 32 µM was determined as 96%. For the same molecule, the EC50 under setting [1] worked out at 1.91 µM. In addition, the EC50 under setting [2] fell in the range of 1.15 to 3.18 µM.

Regarding `COc1ccc2cc1Oc1ccc(cc1)C[C@H]1c3c(cc(OC)c4c3Oc3cc5c(cc3O4)CCN(C)[C@H]5C2)CCN1C#N` [Product 15], the inhibition at 10 µM turned out to be 46% and the inhibition at 32 µM worked out at 50%.

Turning to `COc1ccc2cc1Oc1ccc(cc1)C[C@H]1c3c(cc(OC)c4c3Oc3cc5c(cc3O4)CCN(C)[C@H]5C2)CCN1CCC#N` [Product 16], the inhibition at 10 µM was found to be 56% and the inhibition at 32 µM came out at 77%.

Regarding `COc1ccc2cc1Oc1ccc(cc1)C[C@H]1c3c(cc(OC)c4c3Oc3cc5c(cc3O4)CCN(C)[C@H]5C2)CCN1CC#N` [Product 17], the inhibition at 10 µM worked out at 69% and the inhibition at 32 µM stood at 79%.

As for `COc1ccc2cc1Oc1ccc(cc1)C[C@H]1c3c(cc(OC)c4c3Oc3cc5c(cc3O4)CCN(C)[C@H]5C2)CCN1C(=O)OCCCCn1cnc2c(N)ncnc21` [Product 18], the inhibition at 10 µM was 66% and the inhibition at 32 µM stood at 66%.

`COc1ccc2cc1Oc1ccc(cc1)C[C@H]1c3c(cc(OC)c4c3Oc3cc5c(cc3O4)CCN(C)[C@H]5C2)CCN1C(=O)OCCCn1cnc2c(N)ncnc21` [Product 19]: the inhibition at 10 µM amounted to 67% and the inhibition at 32 µM was 71%.

Turning to `COc1ccc2cc1Oc1ccc(cc1)C[C@H]1c3c(cc(OC)c4c3Oc3cc5c(cc3O4)CCN(CC#N)[C@H]5C2)CCN1C` [Product 20], the inhibition at 10 µM was 50% and the inhibition at 32 µM stood at 66%.

As to `COc1ccc2cc1Oc1ccc(cc1)C[C@H]1c3c(cc(OC)c4c3Oc3cc5c(cc3O4)CCN(CC#N)[C@H]5C2)CCN1CC#N` [Product 21], the inhibition at 10 µM is 32% and the inhibition at 32 µM stood at 82%.

Take `COc1ccc2cc1Oc1ccc(cc1)C[C@H]1c3c(cc(OC)c4c3Oc3cc5c(cc3O4)CCN(CCC#N)[C@H]5C2)CCN1C` [Product 22]: the inhibition at 10 µM stood at 60% and the inhibition at 32 µM turned out to be 64%.

With `COc1ccc2cc1Oc1ccc(cc1)C[C@H]1c3c(cc(OC)c4c3Oc3cc5c(cc3O4)CCN(CCCn3cnc4c(N)ncnc43)[C@H]5C2)CCN1C` [Product 24], the inhibition at 10 µM came out at 42% and the inhibition at 32 µM amounted to 77%.

As to `COc1ccc2cc1Oc1ccc(cc1)C[C@H]1c3c(cc(OC)c4c3Oc3cc5c(cc3O4)CCN(CCCCn3cnc4c(N)ncnc43)[C@H]5C2)CCN1C` [Product 25], the inhibition at 10 µM came out at 46% and the inhibition at 32 µM was 72%.

For the molecule `COc1ccc2cc1Oc1ccc(cc1)C[C@H]1c3c(cc(OC)c4c3Oc3cc5c(cc3O4)CCN(C)[C@H]5C2)CCN1CCCCn1cnc2c(N)ncnc21` [Product 27], the inhibition at 10 µM was 21% and the inhibition at 32 µM is 67%.

On to `COc1ccc2cc1Oc1ccc(cc1)C[C@H]1c3c(cc(OC)c4c3Oc3cc5c(cc3O4)CCN(C)[C@H]5C2)CCN1CCCn1cnc2c(N)ncnc21` [Product 28], for which the inhibition at 10 µM came out at 18% and the inhibition at 32 µM is 60%.

Consider `COc1ccc2cc1Oc1ccc(cc1)CC1c3c(cc(OC)c4c3Oc3cc5c(cc3O4)CCN(C)[C@H]5C2)CCN1C(=O)C1CCC(CN2C(=O)C=CC2=O)CC1` (stereo partly shown) [Product 30], for which the inhibition at 10 µM was found to be 66% and the inhibition at 32 µM is 88%. Also, the EC50 under setting [1] lay within 4.19 to 9.36 µM.

`C=CC(=O)N1CCc2cc(OC)c3c4c2C1Cc1ccc(cc1)Oc1cc(ccc1OC)C[C@H]1c2cc(c(cc2CCN1C)O3)O4` (stereo partly shown) [Product 31]: the inhibition at 10 µM is 43% and the inhibition at 32 µM is 79%.

`COc1ccc2cc1Oc1ccc(cc1)CC1c3c(cc(OC)c4c3Oc3cc5c(cc3O4)CCN(C)[C@H]5C2)CCN1C(=O)CCCl` (stereo partly shown) [Product 32]: the inhibition at 10 µM was 57% and the inhibition at 32 µM came to 82%. Further, the EC50 under setting [1] was in the range of 5.34 to 6.87 µM.

For `COc1ccc2cc1Oc1ccc(cc1)CC1c3c(cc(OC)c4c3Oc3cc5c(cc3O4)CCN(C)[C@H]5C2)CCN1C(=O)/C=C/CN(C)C` (stereo partly shown) [Product 33], the inhibition at 10 µM turned out to be 32% and the inhibition at 32 µM came to 87%.

As for `CNC(=O)N1CCc2cc3c4cc2[C@@H]1Cc1ccc(OC)c(c1)Oc1ccc(cc1)C[C@H]1c2c(cc(OC)c(c2O4)O3)CCN1C(=O)NC` [Product 43], the inhibition at 10 µM was determined as 24% and the inhibition at 32 µM was determined as 49%.

`CNC(=O)N1CCc2cc3c4cc2[C@@H]1Cc1ccc(OC)c(c1)Oc1ccc(cc1)C[C@H]1c2c(cc(OC)c(c2O4)O3)CCN1C` [Product 45]: the inhibition at 10 µM came out at 31% and the inhibition at 32 µM was 73%.

As for `CNC(=S)N1CCc2cc3c4cc2[C@@H]1Cc1ccc(OC)c(c1)Oc1ccc(cc1)C[C@H]1c2c(cc(OC)c(c2O4)O3)CCN1C` [Product 46], the inhibition at 10 µM was 7% and the inhibition at 32 µM came to 52%.

In the case of `CNC(=S)N1CCc2cc3c4cc2[C@@H]1Cc1ccc(OC)c(c1)Oc1ccc(cc1)C[C@H]1c2c(cc(OC)c(c2O4)O3)CCN1C(=S)NC` [Product 47], the inhibition at 10 µM stood at 10% and the inhibition at 32 µM is 40%.

For `CCN(CC)CCCNC(=O)N1CCc2cc(OC)c3c4c2[C@@H]1Cc1ccc(cc1)Oc1cc(ccc1OC)C[C@H]1c2cc(c(cc2CCN1C)O3)O4` [Product 49], the inhibition at 10 µM was determined as 60% and the inhibition at 32 µM came out at 75%. Besides, the EC50 under setting [1] was 6.1 µM. Further, the EC50 under setting [2] lay in the range of 3.72 to 10 µM.

On to `CCN(CC)CCCNC(=O)N1CCc2cc3c4cc2[C@@H]1Cc1ccc(OC)c(c1)Oc1ccc(cc1)C[C@H]1c2c(cc(OC)c(c2O4)O3)CCN1C` [Product 50], for which the inhibition at 10 µM amounted to 69% and the inhibition at 32 µM worked out at 91%. Also, the EC50 under setting [1] worked out at 2.06 µM. Moreover, the EC50 under setting [2] fell in the range of 1.28 to 3.31 µM.

As for `CNC(=O)N1CCc2cc(OC)c3c4c2[C@@H]1Cc1ccc(cc1)Oc1cc(ccc1OC)C[C@@H]1NCCc2cc(c(cc21)O4)O3` [Product 51], the inhibition at 10 µM was 2% and the inhibition at 32 µM amounted to 69%.

On to `COc1cc2c3c4c1Oc1cc5c(cc1O4)[C@H](Cc1ccc(OS(=O)(=O)C(F)(F)F)c(c1)Oc1ccc(cc1)C[C@@H]3N(C)CC2)N(C)CC5` [Product 54], for which the inhibition at 10 µM amounted to 0% and the inhibition at 32 µM stood at 32%.
